Read-outs that look alike come from different tables or passages of the source.
How the values were obtained:
[1] = tested on: heart slice cultures
Experimental: Additional analysis was performed on 3 slices, at 30 days after plating using a confocal laser scanning microscope (Zeiss), following incubation with 5 μM fluo-4 AM (Invitrogen, France) for 20 min at 37° C.
To monitor spontaneous Ca2+ spiking, heart slice cultures, were loaded with 5 μmol/L Fluo-4 AM ester and the temporal change of fluorescent intensity was measured at physiological temperature (37° C.).

[2] = tested on: human heart slices; conditions: slices from 8 week-old human embryo
Experimental: (§1) Cultures were prepared from ventricular sections of 3 day-old rats (Charles River, France) or 8 weeks-old human embyros. The hearts were removed and placed in Phosphate-Buffered Saline (PBS), atria were removed and the ventricles sliced at 1 mm-thickness using a rodent heart matrix (Harvard Apparatus). The heart slices were immediately transferred to a Millicell-CM 0.4 μm membrane (Millipore, France) and the insert placed into a 6 well-plate containing 1 ml of medium.
(§2) The culture medium consisted of DMEM/F12 medium supplemented with 20% Knockout Serum Replacement, 1% non essential amino acids, 2 mM L-glutamine, 0.1 mM β-mercaptoethanol, and 1% PS (Invitrogen, France). Heart slices were maintained for 30-80 days at 37° C. in a humidified atmosphere containing 5% CO2.
(§3) Further functional characterization of the contractile function of ventricular slices was carried out on 24 slices, at 30 days after plating, using a stereomicroscope and a temperature-controlled stage set at 37° C., following incubation with 10, 100nM and 1 μM of epinephrine (Sigma, France). Beating frequency was monitored 3 min after pharmacological stimulation.

[3] = tested on: heart slice cultures; conditions: 10, 100 nmol/L and 1 μmol/L, 30 days after plating, 37° C., monitored 3 min after stimulation
Experimental: as §1, §2, §3

For `CNC[C@H](O)c1ccc(O)c(O)c1` [epinephrine], the “Ca2+-transient amplitude and frequency” value ([1]; heart slice loaded with fluo-4, confocal analysis) was “dose-dependent increase in Ca2+-transient amplitude and frequency”, the “concentration giving maximal response” value ([1]; tested 10, 100 nmol/L and 1 μmol/L) was 1 µmol/L and the “spontaneous beating frequency of human heart slices” value [2] was “increased spontaneous beating frequency of both human heart slices, in a dose-dependent manner”. For the same compound, the “spontaneous beating frequency of human heart slices” value ([2]; listed as Epinephrine) was “increases the frequencies of beating in human heart slices”, the “spontaneous beating frequencies of heart slice” value [3] was “increased the spontaneous beating frequencies of heart slice in dose-response manner” and the “spontaneous beating frequencies of heart slice” value ([3]; listed as Epinepfrine) was “increased the frequencies of spontaneous beating in dose-response manner”.
